8 compounds from patent US20260109732A1, “LIPID AMINES” (ModernaTX, Inc., priority 2021, published 2026) can be followed below.

Counter-ions that a name gives are not always drawn.

Data set [1] in a line: Diameter and PDI from DLS measurements of mRNA nanoparticles with lipid amines. In kind it is physicochemical. The method, boiled down: (§1)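 Ionizable lipid nanoparticles (IL1:DSPC:cholesterol:PEG-DMG-2K) formed by vortex mixing at pH 4, loaded with luciferase or CFTR mRNA at N:P 4.93, neutralized with TRIS pH 8.12, then modified with lipid amine SA50 at pH 7.5. Particle diameter and PDI read by DLS; mRNA encapsulation by Ribogreen assay.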

A short description of data set [2]: Encapsulation of mRNA nanoparticles with lipid amines using Ribogreen assay. The data set is classed as physicochemical. The method, boiled down: as §1
Data set [3] deals with HeLa cells. Kind of data set: Luciferase Protein Expression Assay in HeLa Cells. In kind it is cell-based, Human. As to conditions: LNPs encapsulating Luciferase mRNA, 25 ng per well, N=4 wells; 5 h serum-free then 24 h; ONE-Glo. How it is done:
For HeLa studies evaluating luciferase protein expression, PEG-DMG-2K dissolved in a 20 mM TRIS buffer (pH 7.5) is added to the neutralized intermediate nanoparticle solution at a ratio of 1:6, bringing the solution to the final molar ratios of IL1:DSPC:cholesterol:PEG-DMG-2K of 48.5:11.1:38.9:1.5%. This nanoparticle formulation is then modified with lipid amines. In a typical example, nanoparticle formulation at a concentration of 0.18 mg/mL mRNA and a 0.56 mL volume is modified with lipid amine SA50 (467.2 nmol) prepared in buffer containing 20 mM TRIS, 14.3 mM sodium acetate, 32 g/L sucrose and 140 mM NaCl-pH 7.5 at a volumetric ratio of 1:1 of nanoparticle:buffer.
Lipid nanoparticle compositions were prepared in a manner analogous to that in example 2. To evaluate LNP cellular uptake and protein expression In Vitro, HeLa cells from ATCC.org (ATCC CCL-2) are used. The cells are cultured in complete Minimum Essential Medium (MVEM) and are plated in 96 well Cell Carrier Ultra plate with PDL coated surface (PerkinElmer) prior to running an experiment.
Cells were transfected with buffer control (PBS) or LNPs encapsulating Luciferase mRNA (25 ng per well; N=4 replicate wells) in serum-free MEM media. LNP transfected cells were incubated for 5 h, followed by media removal and supplementation with complete MEM media. Cells were further incubated in complete MEM media overnight (24 h). Following the 24 hr incubation, luciferase protein expression was measured using the ONE-Glo™ Luciferase Assay (Promega). Cells were lysed using 1× Passive Lysis Buffer (Cat. #E194A) for 10 min in a microplate mixer at room temperature. Luciferase in the supernatant was measured by adding Luciferase Assay Reagent (Cat. #E151A) containing luciferin. Bioluminescence was then immediately measured on a Synergy H1 plate reader (BioTek). The results shown in Table 3a show the Average Relative Light Units (RLU) of each sample tested.

The test system of data set [4] is HeLa cells. The experiment in a line: CFTR Protein Expression Assay in HeLa Cells. The data set is classed as cell-based, Human. The note with it: LNPs encapsulating CFTR mRNA, N=4 wells; 5 h serum-free then 24 h; immunofluorescence vs PBS control. Put shortly:
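HeLa cells dosed with CFTR mRNA LNPs (70 mM NaCl final buffer matrix) in serum-free MEM for 5 h, then complete MEM for 24 h. Fixed cells immunostained with anti-CFTR monoclonal and Alexa 488 secondary, imaged confocally; CFTR intensity per cell expressed as fold-change versus PBS buffer control, N=4 wells.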

[5] abbreviates: CFTR mRNA nanoparticle with lipid amine.
Setting [6] is: Luciferase mRNA nanoparticle modified with lipid amine.

Take `CC(C)CCC[C@@H](C)[C@H]1CC[C@H]2[C@@H]3CC=C4C[C@@H](OC(=O)CN(CCCN)CCCCCCCCN)CC[C@]4(C)[C@H]3CC[C@]12C` [SA71, (3S,8S,9S,10R,13R,14S,17R)-10,13-Dimethyl-17-((R)-6-methylheptan-2-yl)-2,3,4,7,8,9,10,11,12,13,14,15,16,17-tetradecahydro-1H-cyclopenta[a]phenanthren-3-yl N-(8-aminooctyl)-N-(3-aminopropyl)glycinate trihydrochloride]: the “Diameter (nm)” value in data set [1] (setting [5]) was determined as 74.3 nm; in data set [1] (setting [6]), 73 nm. Further, the PDI in data set [1] (setting [5]) is 0.12; in data set [1] (setting [6]) it was 0.15. For the same compound, the figures for the “% Encapsulation (Ribogreen)” value in data set [2] (setting [5]) and in data set [2] (setting [6]) were 99.8% and 99.1%, respectively. Moreover, the “Average Relative Light Units ± Standard Deviation” value in data set [3] was 32758.9 ± 5897.1 Relative Light Units. For the same compound, the “Average fold-change in CFTR signal intensity per cell compared to buffer control ± standard deviation” value in data set [4] came to 6.0 ± 0.4 fold-change.

Consider `CC(C)CCC[C@@H](C)[C@H]1CC[C@H]2[C@@H]3CC=C4C[C@@H](OC(=O)CCC(=O)N(CCCN)CCCCCCCCN)CC[C@]4(C)[C@H]3CC[C@]12C` [SA72, (3S,8S,9S,10R,13R,14S,17R)-10,13-Dimethyl-17-((R)-6-methylheptan-2-yl)-2,3,4,7,8,9,10,11,12,13,14,15,16,17-tetradecahydro-1H-cyclopenta[a]phenanthren-3-yl 4-((8-aminooctyl)(3-aminopropyl)amino)-4-oxobutanoate dihydrochloride], for which the “Diameter (nm)” value in data set [1] (setting [5]) is 73.0 nm; in data set [1] (setting [6]), 72 nm. In addition, the PDI in data set [1] (setting [5]) and in data set [1] (setting [6]) was 0.11 in each case. Moreover, the “% Encapsulation (Ribogreen)” value is recorded as 99.8% in data set [2] (setting [5]) and 99.1% in data set [2] (setting [6]). For the same compound, the “Average Relative Light Units ± Standard Deviation” value in data set [3] came to 30826.5 ± 5913.2 Relative Light Units. For the same compound, the “Average fold-change in CFTR signal intensity per cell compared to buffer control ± standard deviation” value in data set [4] stood at 6.6 ± 0.6 fold-change.

Take `CC(C)CCC[C@@H](C)[C@H]1CC[C@H]2[C@@H]3CC=C4C[C@@H](OC(=O)N(CCCCNCC(C)CN)CC(C)CN)CC[C@]4(C)[C@H]3CC[C@]12C` (stereo partly drawn) [SA75, (3S,8S,9S,10R,13R,14S,17R)-10,13-dimethyl-17-((R)-6-methylheptan-2-yl)-2,3,4,7,8,9,10,11,12,13,14,15,16,17-tetradecahydro-1H-cyclopenta[a]phenanthren-3-yl (3-amino-2-methylpropyl)(4-((3-amino-2-methylpropyl)amino)butyl)carbamate trihydrochloride]: the “Diameter (nm)” value in data set [1] (setting [5]) was found to be 86.9 nm; in data set [1] (setting [6]), 74 nm. Moreover, the PDI was 0.11 in data set [1] (setting [5]) and 0.16 in data set [1] (setting [6]). Moreover, the “% Encapsulation (Ribogreen)” value in data set [2] (setting [5]) is recorded as 100%; in data set [2] (setting [6]) it was 98.8%. Further, in data set [3], the “Average Relative Light Units ± Standard Deviation” value is on record as 37732.4 ± 6382.7 Relative Light Units. Also, the “Average fold-change in CFTR signal intensity per cell compared to buffer control ± standard deviation” value in data set [4] was 11.9 ± 0.6 fold-change.

`CC(C)CCC[C@@H](C)[C@H]1CC[C@H]2[C@@H]3CC=C4C[C@@H](OC(=O)N(CCCCNCCC(C)N)CCC(C)N)CC[C@]4(C)[C@H]3CC[C@]12C` (stereo partly drawn) [SA76, (3S,8S,9S,10R,13R,14S,17R)-10,13-dimethyl-17-((R)-6-methylheptan-2-yl)-2,3,4,7,8,9,10,11,12,13,14,15,16,17-tetradecahydro-1H-cyclopenta[a]phenanthren-3-yl (3-aminobutyl)(4-((3-aminobutyl)amino)butyl)carbamate trihydrochloride]: the “Diameter (nm)” value in data set [1] (setting [5]) was determined as 83.9 nm; in data set [1] (setting [6]), 75 nm. For the same compound, the PDI in data set [1] (setting [5]) came to 0.11; in data set [1] (setting [6]) it was 0.20. Moreover, the results for the “% Encapsulation (Ribogreen)” value in data set [2] (setting [5]) and in data set [2] (setting [6]) were 100% and 98.1%, respectively. In addition, in data set [3], the “Average Relative Light Units ± Standard Deviation” value is on record as 38232.8 ± 4603.5 Relative Light Units. The “Average fold-change in CFTR signal intensity per cell compared to buffer control ± standard deviation” value in data set [4] amounted to 12.0 ± 1.1 fold-change.

Take `CC(C)CCC[C@@H](C)[C@H]1CC[C@H]2[C@@H]3CC=C4C[C@@H](OC(=O)N(CCCCNCC(C)(C)CN)CC(C)(C)CN)CC[C@]4(C)[C@H]3CC[C@]12C` [SA77, (3S,8S,9S,10R,13R,14S,17R)-10,13-dimethyl-17-((R)-6-methylheptan-2-yl)-2,3,4,7,8,9,10,11,12,13,14,15,16,17-tetradecahydro-1H-cyclopenta[a]phenanthren-3-yl (3-amino-2,2-dimethylpropyl)(4-((3-amino-2,2-dimethylpropyl)amino)butyl)carbamate trihydrochloride]: the “Diameter (nm)” value in data set [1] (setting [5]) is given as 83.9 nm; in data set [1] (setting [6]) it was 74 nm. Further, the results for the PDI in data set [1] (setting [5]) and in data set [1] (setting [6]) were 0.13 and 0.20, respectively. The “% Encapsulation (Ribogreen)” value in data set [2] (setting [5]) worked out at 100%; in data set [2] (setting [6]), 98.2%. Moreover, the “Average Relative Light Units ± Standard Deviation” value in data set [3] was determined as 39191.9 ± 4319 Relative Light Units. Besides, in data set [4], the “Average fold-change in CFTR signal intensity per cell compared to buffer control ± standard deviation” value turned out to be 12.2 ± 1.3 fold-change.

With `CC(C)CCC[C@@H](C)[C@H]1CC[C@H]2[C@@H]3CC=C4C[C@@H](OC(=O)N(CCCCNCCC(C)(C)N)CCC(C)(C)N)CC[C@]4(C)[C@H]3CC[C@]12C` [SA78, (3S,8S,9S,10R,13R,14S,17R)-10,13-dimethyl-17-((R)-6-methylheptan-2-yl)-2,3,4,7,8,9,10,11,12,13,14,15,16,17-tetradecahydro-1H-cyclopenta[a]phenanthren-3-yl (3-amino-3-methylbutyl)(4-((3-amino-3-methylbutyl)amino)butyl)carbamate trihydrochloride], the “Diameter (nm)” value in data set [1] (setting [5]) was determined as 87.7 nm; in data set [1] (setting [6]), 76 nm. Also, the PDI in data set [1] (setting [5]) is 0.17; in data set [1] (setting [6]), 0.20. The “% Encapsulation (Ribogreen)” value in data set [2] (setting [5]) was determined as 100%; in data set [2] (setting [6]), 99.8%. Moreover, the “Average Relative Light Units ± Standard Deviation” value in data set [3] amounted to 14341.8 ± 3497.6 Relative Light Units. In addition, the “Average fold-change in CFTR signal intensity per cell compared to buffer control ± standard deviation” value in data set [4] came out at 11.3 ± 0.7 fold-change.

Consider `CC(C)CCC[C@@H](C)[C@H]1CC[C@H]2[C@@H]3CC=C4C[C@@H](OC(=O)N(CCCCNCC(F)(F)CN)CC(F)(F)CN)CC[C@]4(C)[C@H]3CC[C@]12C` [SA79, (3S,8S,9S,10R,13R,14S,17R)-10,13-dimethyl-17-((R)-6-methylheptan-2-yl)-2,3,4,7,8,9,10,11,12,13,14,15,16,17-tetradecahydro-1H-cyclopenta[a]phenanthren-3-yl (3-amino-2,2-difluoropropyl)(4-((3-amino-2,2-difluoropropyl)amino)butyl)carbamate trihydrochloride], for which the “Diameter (nm)” value in data set [1] (setting [5]) amounted to 78.4 nm; in data set [1] (setting [6]), 74 nm. The PDI is 0.13 in data set [1] (setting [5]) and 0.18 in data set [1] (setting [6]). Moreover, the “% Encapsulation (Ribogreen)” value in data set [2] (setting [5]) came out at 97.9%; in data set [2] (setting [6]), 97.0%. For the same compound, the “Average Relative Light Units ± Standard Deviation” value in data set [3] is on record as 105.1 ± 20 Relative Light Units. In data set [4], the “Average fold-change in CFTR signal intensity per cell compared to buffer control ± standard deviation” value turned out to be 0.8 ± 0 fold-change.

Regarding `CC(C)CCC[C@@H](C)[C@H]1CC[C@H]2[C@@H]3CC=C4C[C@@H](OC(=O)N(CCCCCCN)CCCCCCN)CC[C@]4(C)[C@H]3CC[C@]12C` [SA81, (3S,8S,9S,10R,13R,14S,17R)-10,13-Dimethyl-17-((R)-6-methylheptan-2-yl)-2,3,4,7,8,9,10,11,12,13,14,15,16,17-tetradecahydro-1H-cyclopenta[a]phenanthren-3-yl bis(6-aminohexyl)carbamate dihydrochloride], the “Diameter (nm)” value is listed as 87.6 nm in data set [1] (setting [5]) and 72 nm in data set [1] (setting [6]). The PDI was 0.18 in data set [1] (setting [5]) and 0.12 in data set [1] (setting [6]). In addition, the “% Encapsulation (Ribogreen)” value in data set [2] (setting [5]) is given as 99.4%; in data set [2] (setting [6]), 99.8%. Besides, the “Average Relative Light Units ± Standard Deviation” value in data set [3] turned out to be 19619.8 ± 4362.6 Relative Light Units. In addition, the “Average fold-change in CFTR signal intensity per cell compared to buffer control ± standard deviation” value in data set [4] was 4.4 ± 0.3 fold-change.
